Data taken from PubChem BioAssay AID330 (DTP/NCI, 2004).
Values joined by “and” are separate entries in the source; they are usually repeats but may differ in a detail not shown here. Equal entries are not always repeated. Toxic doses and inconclusive results are not listed. How the source made its calls: active means survival T/C of 150% or more; inactive means T/C below 125% in these data.

Test system: P388 leukemia ip, CD2F1 mice, survival T/C
Assay: NCI In Vivo Anticancer Drug Screen. Data for tumor model P388 Leukemia (intraperitoneal) in CD2F1 (CDF1) mice
Conditions: endpoint: median survival time, higher = longer survival
Procedure, shortened: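 Mice carrying the transplanted tumor received test compound or vehicle. Survival was recorded in each group, and the value is the treated-group measurement divided by that of the vehicle-treated control group.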

[1] = dose: 50.0 mg/kg/injection, schedule: Q01DX005 (ip), vehicle: saline
[2] = dose: 100.0 mg/kg/injection, schedule: Q01DX005 (ip), vehicle: saline
[3] = dose: 60.0 mg/kg/injection, schedule: Q01DX005 (ip), vehicle: Klucel (hydroxypropylcellulose) (HPC)
[4] = dose: 120.0 mg/kg/injection, schedule: Q01DX005 (ip), vehicle: Klucel (hydroxypropylcellulose) (HPC)
[5] = dose: 50.0 mg/kg/injection, schedule: Q01DX005 (ip), vehicle: Klucel (hydroxypropylcellulose) (HPC)
[6] = dose: 100.0 mg/kg/injection, schedule: Q01DX005 (ip), vehicle: Klucel (hydroxypropylcellulose) (HPC)
[7] = dose: 200.0 mg/kg/injection, schedule: Q01DX005 (ip), vehicle: Klucel (hydroxypropylcellulose) (HPC)
[8] = dose: 100.0 mg/kg/injection, schedule: Q01DX009 (ip), vehicle: saline with Tween-80
[9] = dose: 200.0 mg/kg/injection, schedule: Q01DX009 (ip), vehicle: saline with Tween-80
[10] = dose: 400.0 mg/kg/injection, schedule: Q01DX009 (ip), vehicle: saline with Tween-80
[11] = dose: 50.0 mg/kg/injection, schedule: Q01DX009 (ip), vehicle: Klucel (hydroxypropylcellulose) (HPC)
[12] = dose: 100.0 mg/kg/injection, schedule: Q01DX009 (ip), vehicle: Klucel (hydroxypropylcellulose) (HPC)
[13] = dose: 200.0 mg/kg/injection, schedule: Q01DX009 (ip), vehicle: Klucel (hydroxypropylcellulose) (HPC)

Measured: T/C

Cl
inactive: dose: 6.25 mg/kg/injection, schedule: Q01DX009 (ip), vehicle: saline with Tween-80 95 % of control | dose: 0.01 % in 0.5 ml injection vol, schedule: Q01DX009 (ip), vehicle: water 100 % of control | dose: 12.5 mg/kg/injection, schedule: Q01DX009 (ip), vehicle: saline with Tween-80 100 % of control | dose: 0.02 % in 0.5 ml injection vol, schedule: Q01DX009 (ip), vehicle: water 101 % of control and 92 % of control | dose: 25.0 mg/kg/injection, schedule: Q01DX009 (ip), vehicle: saline with Tween-80 100 % of control | dose: 25.0 mg/kg/injection, schedule: Q01DX009 (ip), vehicle: saline 106 % of control | dose: 0.04 % in 0.5 ml injection vol, schedule: Q01DX009 (ip), vehicle: water 102 % of control and 108 % of control | dose: 50.0 mg/kg/injection, schedule: Q01DX009 (ip), vehicle: saline 104 % of control | dose: 50.0 mg/kg/injection, schedule: Q#A X018 (ip), vehicle: saline 99 % of control | dose: 0.08 % in 0.5 ml injection vol, schedule: Q01DX009 (ip), vehicle: water 100 % of control and 88 % of control | dose: 100.0 mg/kg/injection, schedule: Q01DX009 (ip), vehicle: saline 101 % of control | dose: 100.0 mg/kg/injection, schedule: Q#A X018 (ip), vehicle: saline 105 % of control | dose: 0.16 % in 0.5 ml injection vol, schedule: Q01DX009 (ip), vehicle: water 88 % of control | dose: 200.0 mg/kg/injection, schedule: Q01DX009 (ip), vehicle: saline 110 % of control and 97 % of control | dose: 200.0 mg/kg/injection, schedule: Q#A X018 (ip), vehicle: saline 97 % of control | dose: 0.31 % in 0.5 ml injection vol, schedule: Q01DX009 (ip), vehicle: water 88 % of control | dose: 400.0 mg/kg/injection, schedule: Q01DX009 (ip), vehicle: saline 95 % of control | dose: 400.0 mg/kg/injection, schedule: Q#A X018 (ip), vehicle: saline 87 % of control | dose: 800.0 mg/kg/injection, schedule: Q01DX009 (ip), vehicle: saline 103 % of control

Cn1c2ccccc2c2nnc(N/N=C/c3ccc(Cl)cc3)nc21
inactive: dose: 100.0 mg/kg/injection, schedule: Q04DX002 (ip), vehicle: saline with Tween-80 88 % of control | dose: 200.0 mg/kg/injection, schedule: Q04DX002 (ip), vehicle: saline with Tween-80 87 % of control | dose: 400.0 mg/kg/injection, schedule: Q04DX002 (ip), vehicle: saline with Tween-80 98 % of control

Nc1nnc(-c2cccc(-c3nnc(N)o3)c2)o1
inactive: dose: 60.0 mg/kg/injection, schedule: Q01DX005 (ip), vehicle: saline 98 % of control | dose: 120.0 mg/kg/injection, schedule: Q01DX005 (ip), vehicle: saline 99 % of control | dose: 240.0 mg/kg/injection, schedule: Q01DX005 (ip), vehicle: saline 102 % of control

O=C(c1ccccc1)c1ccc[n+](Cc2ccccc2)c1
inactive: dose: 25.0 mg/kg/injection, schedule: Q01DX005 (ip), vehicle: saline 100 % of control | [1] 111 % of control | [2] 109 % of control

CCCCC(CCCCCC(CCCC)NCc1ccc2c(c1)OCO2)NCc1ccc2c(c1)OCO2 (centres undefined)
inactive: dose: 3.12 mg/kg/injection, schedule: Q01DX009 (ip), vehicle: Klucel (hydroxypropylcellulose) (HPC) 102 % of control | dose: 6.25 mg/kg/injection, schedule: Q01DX009 (ip), vehicle: Klucel (hydroxypropylcellulose) (HPC) 97 % of control | dose: 12.5 mg/kg/injection, schedule: Q01DX009 (ip), vehicle: Klucel (hydroxypropylcellulose) (HPC) 100 % of control and 112 % of control

Cc1cc(O)cc(=O)n1CCc1ccccc1
inactive: [3] 88 % of control | [4] 94 % of control | dose: 240.0 mg/kg/injection, schedule: Q01DX005 (ip), vehicle: Klucel (hydroxypropylcellulose) (HPC) 96 % of control

N#Cc1cn(Cc2ccccc2)c2ccccc2c1=O
inactive: [5] 100 % of control | [6] 103 % of control | [7] 103 % of control

CCCCOC(OCCCC)C(OCCCC)OCCCC
inactive: [8] 105 % of control | dose: 100.0 mg/kg/injection, schedule: Q04DX003 (ip), vehicle: saline sonified 95 % of control | [9] 110 % of control | dose: 200.0 mg/kg/injection, schedule: Q04DX003 (ip), vehicle: saline sonified 100 % of control | [10] 105 % of control | dose: 400.0 mg/kg/injection, schedule: Q04DX003 (ip), vehicle: saline sonified 104 % of control

CC1C(=O)CC2CCC1N2C(=O)O (centres undefined)
inactive: [1] 96 % of control | [2] 96 % of control | dose: 200.0 mg/kg/injection, schedule: Q01DX005 (ip), vehicle: saline 94 % of control

CC(C)(C)C1=CC2(c3ccccn3)C(Cl)C(=O)N2NC(c2ccccn2)=N1 (centres undefined)
inactive: dose: 25.0 mg/kg/injection, schedule: Q01DX009 (ip), vehicle: other 98 % of control | dose: 50.0 mg/kg/injection, schedule: Q01DX009 (ip), vehicle: other 101 % of control | dose: 100.0 mg/kg/injection, schedule: Q01DX009 (ip), vehicle: other 98 % of control | dose: 200.0 mg/kg/injection, schedule: Q01DX009 (ip), vehicle: other 93 % of control

Nc1ncc[n+]2c(COCCCl)[nH]nc12
inactive: dose: 100.0 mg/kg/injection, schedule: Q01DX001 (ip), vehicle: Klucel (hydroxypropylcellulose) (HPC) 92 % of control | dose: 200.0 mg/kg/injection, schedule: Q01DX001 (ip), vehicle: Klucel (hydroxypropylcellulose) (HPC) 92 % of control

COC(=O)C(CCCCNC(=O)OCc1ccccc1)NC(=O)C(Cc1ccccc1)NC(=O)OC(C)(C)C (centres undefined)
inactive: [5] 99 % of control | [6] 97 % of control | [7] 99 % of control

COc1cccc([B-]23OCC[N+]2(CNC(=O)c2ccccc2O)CCO3)c1 (centres undefined)
inactive: [5] 106 % of control | [6] 104 % of control | [7] 112 % of control

CNC(C)=O
inactive: [8] 95 % of control | dose: 100.0 mg/kg/injection, schedule: Q04DX003 (ip), vehicle: saline 90 % of control | [9] 95 % of control | dose: 200.0 mg/kg/injection, schedule: Q04DX003 (ip), vehicle: saline 95 % of control | [10] 95 % of control | dose: 400.0 mg/kg/injection, schedule: Q04DX003 (ip), vehicle: saline 100 % of control

C/C=C/C=C/C(=O)Nc1ncc([N+](=O)[O-])s1
inactive: [11] 103 % of control | [12] 104 % of control | [13] 109 % of control

CCON1C(=O)C(C)c2ccccc21 (centres undefined)
inactive: dose: 60.0 mg/kg/injection, schedule: Q01DX005 (ip), vehicle: saline with Tween-80 98 % of control | dose: 120.0 mg/kg/injection, schedule: Q01DX005 (ip), vehicle: saline with Tween-80 102 % of control | dose: 240.0 mg/kg/injection, schedule: Q01DX005 (ip), vehicle: saline with Tween-80 102 % of control

COC(=O)NC(NC(=O)OC)C(F)(F)C(NC(=O)OC)NC(=O)OC
inactive: [3] 96 % of control | [4] 95 % of control

CN(c1ccc(C2=NCCN2)cc1)S(=O)(=O)c1ccc(Oc2ccc(S(=O)(=O)N(C)c3ccc(C4=NCCN4)cc3)cc2)cc1
inactive: dose: 6.25 mg/kg/injection, schedule: Q01DX005 (ip), vehicle: Klucel (hydroxypropylcellulose) (HPC) 100 % of control | dose: 12.5 mg/kg/injection, schedule: Q01DX005 (ip), vehicle: Klucel (hydroxypropylcellulose) (HPC) 100 % of control | dose: 25.0 mg/kg/injection, schedule: Q01DX005 (ip), vehicle: Klucel (hydroxypropylcellulose) (HPC) 109 % of control

CN(C)Cc1c(/C=C/C2=[N+](C)c3ccccc3C2(C)C)[nH]c2ccccc12
inactive: [11] 110 % of control | [12] 107 % of control | [13] 110 % of control

CCOC(=O)CSc1nnc(N)s1
inactive: dose: 50.0 mg/kg/injection, schedule: Q01DX009 (ip), vehicle: saline with Tween-80 121 % of control | [8] 116 % of control | [9] 98 % of control

O/N=C\c1ccccc1P(c1ccccc1)c1ccccc1/C=N\O
inactive: dose: 50.0 mg/kg/injection, schedule: Q01DX005 (ip), vehicle: saline with Tween-80 93 % of control | dose: 100.0 mg/kg/injection, schedule: Q01DX005 (ip), vehicle: saline with Tween-80 92 % of control | dose: 200.0 mg/kg/injection, schedule: Q01DX005 (ip), vehicle: saline with Tween-80 90 % of control
